Reference: the supplement of paper PMC10307832

Compound: CC1=C(N=C(N=C1N)[C@H](CC(=O)N)NC[C@@H](C(=O)N)N)C(=O)N[C@@H]([C@H](C2=CN=CN2)OC3C(C(C(C(O3)CO)O)O)OC4C(C(C(C(O4)CO)O)OC(=O)N)O)C(=O)N[C@H](C)[C@H]([C@H](C)C(=O)N[C@@H]([C@@H](C)O)C(=O)NCCC5=NC(=CS5)C6=NC(=CS6)C(=O)NCCC[S+](C)C)O [Bleomycin] + O=C(c1cc(Cc2n[nH]c(=O)c3ccccc23)ccc1F)N1CCN(C(=O)C2CC2)CC1 [Olaparib] (partner 8 µM)
Assay: relative viability (nuclei count vs DMSO), 5 days (fraction); higher = more cells survive
Conditions: first compound 0.1 µM; main component drawn
How it was run: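 For relative viability, nuclei counts in treated wells were divided by those in vehicle wells. Lung cancer cell lines had been pin-tool dosed in 1536-well plates the day after seeding and cultured for 5 days, then fixed and stained in one step (final 0.05% Triton X-100, 1% formaldehyde, 1 ug/ml Hoechst) and imaged at 4×. Doses were one drug alone or a fixed anchor-drug dose plus five library-drug doses (not always all listed) in √10 steps, and values are duplicate-plate medians.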

Row | Cell Line | relative viability
1 | NCI-H1734 | 0.377
2 | NCI-H2405 | 0.669
3 | NCI-H1395 | 0.406
4 | 201T | 0.715
5 | NCI-H1915 | 0.166
6 | HCC-827 | 0.446
7 | LXF-289 | 0.864
8 | NCI-H2347 | 0.466
9 | NCI-H650 | 0.336
10 | NCI-H1651 | 0.172
11 | EPLC-272H | 0.183
12 | NCI-H23 | 0.171
13 | NCI-H1792 | 0.487
14 | NCI-H1355 | 0.676
15 | NCI-H322M | 0.675

Same assay, conditions: first compound 0.3162 µM; main component drawn

Row | Cell Line | relative viability
16 | LOU-NH91 | 0.342
17 | ChaGo-K-1 | 0.28
18 | NCI-H2170 | 0.361
19 | NCI-H3122 | 0.364
20 | HOP-62 | 0.0722
21 | HCC-44 | 0.415
22 | LU99A | 0.141
23 | BEN | 0.809
24 | HARA | 0.247
25 | HCC-78 | 0.488
26 | NCI-H441 | 0.338
27 | LCLC-97TM1 | 0.0871
28 | A-427 | 0.274
29 | NCI-H460 | 0.0368
30 | NCI-H727 | 0.592
31 | NCI-H1734 | 0.222
32 | NCI-H2405 | 0.395
33 | NCI-H1395 | 0.35
34 | 201T | 0.507
35 | NCI-H1915 | 0.137
36 | HCC-827 | 0.209
37 | LXF-289 | 0.168
38 | NCI-H2347 | 0.45
39 | NCI-H650 | 0.264
40 | NCI-H1651 | 0.116
41 | EPLC-272H | 0.0606
42 | NCI-H23 | 0.107
43 | NCI-H1792 | 0.183
44 | NCI-H1355 | 0.341
45 | NCI-H322M | 0.545

Same assay, conditions: first compound 1 µM; main component drawn

Row | Cell Line | relative viability
46 | LOU-NH91 | 0.28
47 | ChaGo-K-1 | 0.229
48 | NCI-H2170 | 0.3
49 | NCI-H3122 | 0.279
50 | HOP-62 | 0.0872
51 | HCC-44 | 0.401
52 | LU99A | 0.118
53 | BEN | 0.733
54 | HARA | 0.351
55 | HCC-78 | 0.487
56 | NCI-H441 | 0.226
57 | LCLC-97TM1 | 0.0615
58 | A-427 | 0.24
59 | NCI-H460 | 0.073
60 | NCI-H727 | 0.624
61 | NCI-H1734 | 0.148
62 | NCI-H2405 | 0.277
63 | NCI-H1395 | 0.377
64 | 201T | 0.411
65 | NCI-H1915 | 0.11
66 | HCC-827 | 0.161
67 | LXF-289 | 0.127
68 | NCI-H2347 | 0.413
69 | NCI-H650 | 0.175
70 | NCI-H1651 | 0.122
71 | EPLC-272H | 0.111
72 | NCI-H23 | 0.107
73 | NCI-H1792 | 0.11
74 | NCI-H1355 | 0.228
